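A five-concentration, 48-hour dose response in 96-well plates underlies each endpoint, interpolated linearly between surrounding concentrations. The concentration for 50% growth inhibition is given as GI50.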 Calls of active or inactive are those of the source. Rule as the data show it: active = GI50 up to about 1.1 µM and inactive = higher.
Experiments:
Assay in all cases: NCI-60 cell line screen, 48 h
CAKI-1 = system: CAKI-1
SF-539 = system: SF-539
SN12C = system: SN12C
RXF 393 = system: RXF 393
HCC 2998 = system: HCC 2998
EKVX = system: EKVX
SK-MEL-28 = system: SK-MEL-28
HL-60 = system: HL-60
NCI-H460 = system: NCI-H460
NCI-H23 = system: NCI-H23
SNB-19 = system: SNB-19
DMS-114 = system: DMS-114
HCT-116 = system: HCT-116
UACC-62 = system: UACC-62
NCI-H226 = system: NCI-H226
MDA-MB-435 = system: MDA-MB-435
T47D = system: T47D
DU-145 = system: DU-145
PC-3 = system: PC-3
MCF7 = system: MCF7

Measured: GI50

O=C(O)CCSC(=O)Nc1cccc([N+](=O)[O-])c1
inactive: CAKI-1 71.1 µM | SF-539 > 100 µM | SN12C 94.6 µM | RXF 393 > 100 µM | HCC 2998 > 100 µM | EKVX > 100 µM | SK-MEL-28 > 100 µM | HL-60 > 100 µM | NCI-H460 > 100 µM | NCI-H23 > 100 µM | SNB-19 > 100 µM | DMS-114 > 100 µM | HCT-116 > 100 µM

CCOc1ccc([Se][Se]c2ccc(OCC)cc2)cc1
inactive: CAKI-1 21 µM | SF-539 > 100 µM | UACC-62 95.7 µM | SN12C > 100 µM | RXF 393 35.5 µM | HCC 2998 > 100 µM | EKVX > 100 µM | SK-MEL-28 > 100 µM | NCI-H460 > 100 µM | NCI-H23 11.5 µM | SNB-19 > 100 µM | DMS-114 20.7 µM | HCT-116 56.1 µM | NCI-H226 44.2 µM

N#CC(C(=O)CCC(=O)Nc1ccc(Cl)c(Cl)c1)c1ccccc1 (configuration not stated)
inactive: CAKI-1 > 100 µM | SF-539 > 100 µM | UACC-62 > 100 µM | SN12C > 100 µM | RXF 393 > 100 µM | HCC 2998 > 100 µM | EKVX > 100 µM | SK-MEL-28 > 100 µM | HL-60 > 100 µM | NCI-H23 > 100 µM | SNB-19 > 100 µM | DMS-114 > 100 µM | HCT-116 > 100 µM | NCI-H226 > 100 µM

Cc1ccc(NC(=O)C(=O)Cc2nc3ccccc3o2)c(C)c1
inactive: CAKI-1 > 100 µM | SF-539 > 100 µM | UACC-62 > 100 µM | SN12C > 100 µM | RXF 393 > 100 µM | HCC 2998 > 100 µM | EKVX > 100 µM | SK-MEL-28 > 100 µM | NCI-H460 > 100 µM | NCI-H23 > 100 µM | SNB-19 > 100 µM | DMS-114 > 100 µM | HCT-116 > 100 µM | NCI-H226 > 100 µM

O=[PH](O)c1ccsc1
inactive: CAKI-1 52.1 µM | SF-539 > 100 µM | UACC-62 > 100 µM | SN12C > 100 µM | RXF 393 > 100 µM | EKVX > 100 µM | SK-MEL-28 > 100 µM | HL-60 > 100 µM | NCI-H460 > 100 µM | NCI-H23 > 100 µM | DMS-114 > 100 µM | HCT-116 > 100 µM

COc1ccc(C=C2C(=O)OC(C)(C)OC2=O)cc1OC
inactive: CAKI-1 > 100 µM | UACC-62 > 100 µM | SN12C > 100 µM | HCC 2998 > 100 µM | EKVX > 100 µM | SK-MEL-28 > 100 µM | NCI-H460 > 100 µM | NCI-H23 > 100 µM | SNB-19 > 100 µM | DMS-114 > 100 µM

O=C1CC23CCCCCCCCCCC2(C1)CC(=O)C3 (configuration not stated)
inactive: SF-539 33.7 µM | SN12C 17.6 µM | RXF 393 25.4 µM | HCC 2998 32.7 µM | EKVX 30.1 µM | SK-MEL-28 38.7 µM | HL-60 17.4 µM | NCI-H460 34.7 µM | NCI-H23 32.1 µM | SNB-19 22.9 µM | DMS-114 26.7 µM | NCI-H226 26.5 µM

CCOC(=O)C(NC(=O)c1nc[nH]c1[N+](=O)[O-])C(C)C (configuration not stated)
inactive: CAKI-1 > 100 µM | SF-539 > 100 µM | UACC-62 > 100 µM | SN12C > 100 µM | HCC 2998 66.4 µM | EKVX 94 µM | SK-MEL-28 > 100 µM | HL-60 27.6 µM | NCI-H460 50.6 µM | NCI-H23 31.3 µM | SNB-19 > 100 µM | DMS-114 > 100 µM | HCT-116 > 100 µM | NCI-H226 30.8 µM

O=C1CCC2CCc3cccc4oc1c2c34 (configuration not stated)
inactive: CAKI-1 > 100 µM | SF-539 > 100 µM | UACC-62 > 100 µM | SN12C > 100 µM | RXF 393 > 100 µM | HCC 2998 > 100 µM | EKVX 74.1 µM | SK-MEL-28 > 100 µM | HL-60 > 100 µM | NCI-H460 > 100 µM | NCI-H23 > 100 µM | SNB-19 > 100 µM | DMS-114 > 100 µM | HCT-116 > 100 µM

COc1ccc(/C=C/CN(C)CCc2ccccc2)cc1OC
inactive: UACC-62 > 100 µM | SN12C 66.1 µM | RXF 393 51.2 µM | HCC 2998 32.1 µM | EKVX > 100 µM | SK-MEL-28 > 100 µM | NCI-H23 > 100 µM | SNB-19 > 100 µM | DMS-114 77.4 µM | HCT-116 26.4 µM | NCI-H226 > 100 µM

COCCNC(=O)C1C(=O)C(=O)N(CCOC)C1=O (configuration not stated)
inactive: CAKI-1 > 100 µM | SF-539 > 100 µM | UACC-62 > 100 µM | SN12C > 100 µM | RXF 393 > 100 µM | HCC 2998 > 100 µM | EKVX > 100 µM | SK-MEL-28 > 100 µM | NCI-H23 > 100 µM | SNB-19 > 100 µM | DMS-114 > 100 µM | HCT-116 > 100 µM | NCI-H226 > 100 µM

C=C1C[C@@H]2O[C@H]3[C@H]4[C@@H](C[C@@H](C)[C@@H](OC(C)=O)[C@H]42)[C@@H](C)CO[C@@]3(C)[C@H](OC(=O)CCCCCCC)C[C@H]1O
inactive: CAKI-1 14.8 µM | SF-539 23.4 µM | UACC-62 16.3 µM | MDA-MB-435 18.7 µM | SN12C 17.3 µM | RXF 393 18.9 µM | HCC 2998 16.9 µM | EKVX 13.9 µM | SK-MEL-28 17.4 µM | HL-60 12.4 µM | NCI-H460 16.1 µM | T47D 11.1 µM | NCI-H23 19.8 µM | SNB-19 16.7 µM | HCT-116 16.5 µM | NCI-H226 10.5 µM | DU-145 14.9 µM | PC-3 15.3 µM | MCF7 21.4 µM

CCOC(=O)c1cc(Br)c(-c2cc(C)co2)[nH]1
inactive: CAKI-1 > 100 µM | SF-539 > 100 µM | UACC-62 > 100 µM | MDA-MB-435 32.9 µM | SN12C > 100 µM | RXF 393 > 100 µM | HCC 2998 > 100 µM | EKVX 67 µM | SK-MEL-28 > 100 µM | HL-60 55.7 µM | NCI-H460 > 100 µM | T47D > 100 µM | NCI-H23 > 100 µM | SNB-19 > 100 µM | HCT-116 > 100 µM | NCI-H226 > 100 µM | DU-145 > 100 µM | PC-3 > 100 µM | MCF7 > 100 µM

CCOC(=O)C1Sc2ccccc2N=C1C (configuration not stated)
inactive: SF-539 > 100 µM | SN12C > 100 µM | RXF 393 > 100 µM | HCC 2998 > 100 µM | EKVX > 100 µM | SK-MEL-28 > 100 µM | HL-60 > 100 µM | NCI-H460 > 100 µM | NCI-H23 > 100 µM | SNB-19 > 100 µM | DMS-114 > 100 µM | HCT-116 > 100 µM | NCI-H226 > 100 µM

— ChEMBL document CHEMBL1201862, “PubChem BioAssay data set” (2004)
